The source made the active and inactive calls. Rule as the data show it, for most assays here: actives have a measured Kd and inactives only a lower limit.
Assays:
[1] = biological target: Mitotic checkpoint serine/threonine-protein kinase BUB1 (Homo sapiens, UniProt O43683)
dCTP pyrophosphatase 1 = biological target: T1, dCTP pyrophosphatase 1 (Homo sapiens, UniProt Q9H773)
T1 sequence (Q9H773 whole entry): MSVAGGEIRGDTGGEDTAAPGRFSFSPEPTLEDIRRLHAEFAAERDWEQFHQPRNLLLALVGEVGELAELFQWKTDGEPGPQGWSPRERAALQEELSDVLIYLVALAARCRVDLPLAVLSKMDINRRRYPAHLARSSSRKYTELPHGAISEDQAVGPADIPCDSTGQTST

[2] = biological target: Putative heat shock protein HSP 90-beta 2 (Homo sapiens, UniProt Q58FF8)
[3] = biological target: T2, Dual specificity mitogen-activated protein kinase kinase 5 (Homo sapiens, UniProt Q13163)
T2 sequence (Q13163 whole entry): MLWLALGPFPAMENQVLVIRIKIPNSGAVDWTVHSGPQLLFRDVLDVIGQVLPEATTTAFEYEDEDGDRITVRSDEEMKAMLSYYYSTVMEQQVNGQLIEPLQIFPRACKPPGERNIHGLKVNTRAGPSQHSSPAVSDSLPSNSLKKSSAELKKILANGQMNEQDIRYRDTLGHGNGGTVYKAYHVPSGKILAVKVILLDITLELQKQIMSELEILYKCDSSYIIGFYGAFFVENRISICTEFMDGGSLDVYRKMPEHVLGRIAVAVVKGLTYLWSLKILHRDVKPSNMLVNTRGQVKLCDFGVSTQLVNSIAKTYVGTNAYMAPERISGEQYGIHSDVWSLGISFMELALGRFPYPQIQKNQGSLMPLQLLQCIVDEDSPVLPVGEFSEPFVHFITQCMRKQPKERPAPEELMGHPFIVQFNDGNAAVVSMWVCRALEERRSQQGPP

[4] = biological target: T3, Mitogen-activated protein kinase 15 (Homo sapiens, UniProt Q8TD08)
T3 sequence (Q8TD08 whole entry): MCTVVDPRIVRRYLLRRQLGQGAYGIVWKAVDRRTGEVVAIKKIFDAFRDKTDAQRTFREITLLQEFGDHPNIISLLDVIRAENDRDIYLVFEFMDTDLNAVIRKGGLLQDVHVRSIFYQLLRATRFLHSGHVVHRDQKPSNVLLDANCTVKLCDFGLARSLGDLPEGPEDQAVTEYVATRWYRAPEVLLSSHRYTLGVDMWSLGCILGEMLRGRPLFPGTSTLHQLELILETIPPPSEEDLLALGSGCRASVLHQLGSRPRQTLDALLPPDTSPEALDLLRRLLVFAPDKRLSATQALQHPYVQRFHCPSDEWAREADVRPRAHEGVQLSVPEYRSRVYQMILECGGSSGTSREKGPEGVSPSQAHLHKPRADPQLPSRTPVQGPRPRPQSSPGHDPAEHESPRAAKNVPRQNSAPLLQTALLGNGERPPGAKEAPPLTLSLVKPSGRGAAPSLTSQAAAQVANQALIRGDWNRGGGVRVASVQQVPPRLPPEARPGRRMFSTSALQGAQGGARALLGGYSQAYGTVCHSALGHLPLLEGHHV

[5] = biological target: Protein-tyrosine kinase 6 (Homo sapiens, UniProt Q13882)
[6] = biological target: T4, Serine/threonine-protein kinase TBK1 (Homo sapiens, UniProt Q9UHD2)
T4 sequence (Q9UHD2 whole entry): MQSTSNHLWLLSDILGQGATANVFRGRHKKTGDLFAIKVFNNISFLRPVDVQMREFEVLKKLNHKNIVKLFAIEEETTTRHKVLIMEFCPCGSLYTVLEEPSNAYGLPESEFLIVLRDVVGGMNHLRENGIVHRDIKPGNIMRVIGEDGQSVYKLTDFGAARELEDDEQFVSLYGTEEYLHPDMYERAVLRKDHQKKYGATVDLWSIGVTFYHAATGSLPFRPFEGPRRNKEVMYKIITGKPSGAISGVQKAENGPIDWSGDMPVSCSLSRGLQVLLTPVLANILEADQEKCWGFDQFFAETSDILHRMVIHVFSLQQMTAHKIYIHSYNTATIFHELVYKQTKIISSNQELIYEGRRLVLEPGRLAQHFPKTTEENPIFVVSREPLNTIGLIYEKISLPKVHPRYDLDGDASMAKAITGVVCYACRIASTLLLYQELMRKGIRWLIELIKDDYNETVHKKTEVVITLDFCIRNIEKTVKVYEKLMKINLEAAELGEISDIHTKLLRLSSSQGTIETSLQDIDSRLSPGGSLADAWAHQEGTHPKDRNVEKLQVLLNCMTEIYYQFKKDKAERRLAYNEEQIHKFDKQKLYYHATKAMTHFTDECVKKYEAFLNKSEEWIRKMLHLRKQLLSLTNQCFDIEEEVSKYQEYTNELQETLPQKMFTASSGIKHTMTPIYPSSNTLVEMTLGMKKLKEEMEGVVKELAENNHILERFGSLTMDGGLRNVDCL

[7] = biological target: T5, ATP-dependent 6-phosphofructokinase, platelet type (Homo sapiens, UniProt Q01813)
T5 sequence (Q01813 whole entry): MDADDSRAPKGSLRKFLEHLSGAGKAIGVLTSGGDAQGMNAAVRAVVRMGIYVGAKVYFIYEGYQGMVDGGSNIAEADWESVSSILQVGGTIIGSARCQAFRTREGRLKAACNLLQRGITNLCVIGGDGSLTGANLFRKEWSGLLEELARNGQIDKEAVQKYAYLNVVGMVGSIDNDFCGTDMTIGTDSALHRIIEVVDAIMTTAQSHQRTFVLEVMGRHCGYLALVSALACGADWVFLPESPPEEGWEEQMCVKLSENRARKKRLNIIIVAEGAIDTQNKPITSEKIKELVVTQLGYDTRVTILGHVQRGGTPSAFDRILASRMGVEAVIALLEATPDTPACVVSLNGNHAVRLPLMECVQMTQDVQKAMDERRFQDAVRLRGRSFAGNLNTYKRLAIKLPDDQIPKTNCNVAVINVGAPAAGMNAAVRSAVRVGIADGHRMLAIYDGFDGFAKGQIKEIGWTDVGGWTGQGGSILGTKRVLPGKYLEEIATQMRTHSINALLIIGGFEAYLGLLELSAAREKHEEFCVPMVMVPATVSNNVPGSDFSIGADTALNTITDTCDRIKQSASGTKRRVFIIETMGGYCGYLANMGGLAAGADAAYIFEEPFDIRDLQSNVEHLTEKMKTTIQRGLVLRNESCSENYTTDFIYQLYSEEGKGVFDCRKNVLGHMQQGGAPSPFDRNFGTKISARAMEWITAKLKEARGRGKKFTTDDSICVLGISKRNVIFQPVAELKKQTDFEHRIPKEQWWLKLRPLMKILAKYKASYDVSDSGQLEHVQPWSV
Also: in the data inactive means no Kd found up to 30 µM.

Protein-tyrosine kinase 6, sequence (Q13882 whole entry): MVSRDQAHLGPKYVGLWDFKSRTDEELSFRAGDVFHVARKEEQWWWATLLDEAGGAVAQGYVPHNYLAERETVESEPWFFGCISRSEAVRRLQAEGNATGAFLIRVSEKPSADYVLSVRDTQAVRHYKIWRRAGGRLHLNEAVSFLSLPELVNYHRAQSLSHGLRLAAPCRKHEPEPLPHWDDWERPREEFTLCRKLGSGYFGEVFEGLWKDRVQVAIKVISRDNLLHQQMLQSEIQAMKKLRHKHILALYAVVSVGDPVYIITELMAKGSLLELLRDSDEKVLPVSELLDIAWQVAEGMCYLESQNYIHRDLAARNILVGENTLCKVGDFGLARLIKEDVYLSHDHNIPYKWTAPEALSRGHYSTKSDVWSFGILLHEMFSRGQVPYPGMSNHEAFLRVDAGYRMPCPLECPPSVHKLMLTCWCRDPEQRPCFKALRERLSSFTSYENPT
Putative heat shock protein HSP 90-beta 2, sequence (Q58FF8 whole entry): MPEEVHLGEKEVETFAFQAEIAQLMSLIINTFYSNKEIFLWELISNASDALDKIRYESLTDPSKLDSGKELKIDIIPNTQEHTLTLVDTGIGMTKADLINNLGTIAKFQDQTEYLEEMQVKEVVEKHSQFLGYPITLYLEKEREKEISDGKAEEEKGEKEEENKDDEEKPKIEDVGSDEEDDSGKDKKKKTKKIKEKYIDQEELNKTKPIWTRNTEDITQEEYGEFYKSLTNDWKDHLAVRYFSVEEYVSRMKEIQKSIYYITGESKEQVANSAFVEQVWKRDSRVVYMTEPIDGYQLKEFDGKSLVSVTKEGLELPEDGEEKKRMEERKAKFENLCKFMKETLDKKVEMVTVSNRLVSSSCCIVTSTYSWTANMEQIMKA
Mitotic checkpoint serine/threonine-protein kinase BUB1, sequence (O43683 whole entry): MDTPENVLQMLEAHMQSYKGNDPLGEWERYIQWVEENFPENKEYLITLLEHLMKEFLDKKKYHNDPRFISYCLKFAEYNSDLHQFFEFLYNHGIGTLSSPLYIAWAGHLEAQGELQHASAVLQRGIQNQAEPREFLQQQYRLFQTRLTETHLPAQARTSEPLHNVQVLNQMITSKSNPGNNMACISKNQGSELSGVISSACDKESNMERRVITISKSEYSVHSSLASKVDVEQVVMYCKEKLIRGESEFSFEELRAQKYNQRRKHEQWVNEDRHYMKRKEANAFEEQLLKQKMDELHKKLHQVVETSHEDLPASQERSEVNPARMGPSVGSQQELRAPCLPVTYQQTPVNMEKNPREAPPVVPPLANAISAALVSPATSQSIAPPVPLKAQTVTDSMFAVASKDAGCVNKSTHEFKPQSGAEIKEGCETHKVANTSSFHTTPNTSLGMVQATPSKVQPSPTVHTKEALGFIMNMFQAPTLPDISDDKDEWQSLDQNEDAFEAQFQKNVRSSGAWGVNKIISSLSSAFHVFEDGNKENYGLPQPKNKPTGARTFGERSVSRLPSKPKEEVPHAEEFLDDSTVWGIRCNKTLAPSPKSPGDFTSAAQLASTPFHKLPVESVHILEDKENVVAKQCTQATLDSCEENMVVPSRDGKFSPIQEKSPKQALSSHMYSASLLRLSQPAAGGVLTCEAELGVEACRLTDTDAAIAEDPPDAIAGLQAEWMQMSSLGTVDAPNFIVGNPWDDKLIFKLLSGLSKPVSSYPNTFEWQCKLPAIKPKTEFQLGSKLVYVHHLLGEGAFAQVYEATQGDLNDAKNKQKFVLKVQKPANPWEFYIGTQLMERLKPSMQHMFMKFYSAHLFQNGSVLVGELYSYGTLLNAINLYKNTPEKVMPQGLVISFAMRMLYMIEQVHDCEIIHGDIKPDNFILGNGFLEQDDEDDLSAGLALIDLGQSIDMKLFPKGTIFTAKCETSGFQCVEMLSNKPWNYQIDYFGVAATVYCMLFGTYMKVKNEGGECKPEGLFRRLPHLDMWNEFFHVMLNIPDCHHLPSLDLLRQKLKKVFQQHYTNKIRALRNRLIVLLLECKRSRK

SMILES | Kd [1] | Kd (dCTP pyrophosphatase 1) | Kd [2] | Kd [3] | Kd [5] | Kd [6] | Kd [7] | Kd [4]
CN(c1ncccc1CNc1nc(Nc2ccc3c(c2)CC(=O)N3)ncc1C(F)(F)F)S(C)(=O)=O [PF-00562271] | > 30 µM (inactive) | > 30 µM (inactive) | > 30 µM (inactive) | > 30 µM (inactive) | > 30 µM (inactive) | – | > 30 µM (inactive) | 1.47 µM
CC1(COc2ccc3c(c2)ncn3-c2ccc3cccc(N4CCC(N)CC4)c3n2)COC1 [CRENOLANIB] | > 30 µM (inactive) | > 30 µM (inactive) | 2.57 µM (active) | – | > 30 µM (inactive) | > 30 µM (inactive) | > 30 µM (inactive) | > 30 µM (inactive)
Cn1cnc2c(F)c(Nc3ccc(Br)cc3Cl)c(C(=O)NOCCO)cc21 [SELUMETINIB] | > 30 µM (inactive) | > 30 µM (inactive) | > 30 µM (inactive) | – | – | – | > 30 µM (inactive) | –
O=S(=O)(c1cccc2cnccc12)N1CCCNCC1 [FASUDIL] | > 30 µM (inactive) | > 30 µM (inactive) | > 30 µM (inactive) | > 30 µM (inactive) | > 30 µM (inactive) | – | > 30 µM (inactive) | > 30 µM (inactive)
C=CCn1c(=O)c2cnc(Nc3ccc(N4CCN(C)CC4)cc3)nc2n1-c1cccc(C(C)(C)O)n1 [ADAVOSERTIB] | > 30 µM (inactive) | > 30 µM (inactive) | > 30 µM (inactive) | > 30 µM (inactive) | > 30 µM (inactive) | – | > 30 µM (inactive) | > 30 µM (inactive)
CN(C)C/C=C/C(=O)Nc1cc2c(Nc3ccc(F)c(Cl)c3)ncnc2cc1O[C@H]1CCOC1 [AFATINIB] | > 30 µM (inactive) | > 30 µM (inactive) | > 30 µM (inactive) | – | – | – | – | –
C[C@@]1(C(=O)Nc2ccc(F)nc2)CCCN1c1nc(Nc2cc(C3CC3)n[nH]2)c2cccn2n1 [BMS-754807] | – | > 30 µM (inactive) | > 30 µM (inactive) | – | – | – | > 30 µM (inactive) | –
C=CCN(/C=C1/C(=O)O[C@H](COC)[C@@]2(C)C1=C(O)C(=O)C1=C2[C@H](OC(C)=O)C[C@]2(C)C(=O)CC[C@@H]12)CC=C [SONOLISIB] | – | > 30 µM (inactive) | > 30 µM (inactive) | > 30 µM (inactive) | > 30 µM (inactive) | > 30 µM (inactive) | – | > 30 µM (inactive)
N#CCNC(=O)c1ccc(-c2ccnc(Nc3ccc(N4CCOCC4)cc3)n2)cc1 [MOMELOTINIB] | > 30 µM (inactive) | > 30 µM (inactive) | > 30 µM (inactive) | > 30 µM (inactive) | > 30 µM (inactive) | – | > 30 µM (inactive) | > 30 µM (inactive)
FC(F)(F)c1ccc(CNc2ccc(Cc3c[nH]c4ncc(Cl)cc34)cn2)cn1 [PEXIDARTINIB] | > 30 µM (inactive) | > 30 µM (inactive) | > 30 µM (inactive) | > 30 µM (inactive) | > 30 µM (inactive) | > 30 µM (inactive) | – | > 30 µM (inactive)

Continued, in another order:

Kd [1] | Kd (dCTP pyrophosphatase 1) | Kd [2] | Kd [3] | Kd [5] | Kd [6] | Kd [7] | SMILES | Kd [4]
> 30 µM (inactive) | > 30 µM (inactive) | > 30 µM (inactive) | 3.35 µM | > 30 µM (inactive) | > 30 µM (inactive) | – | Cn1c(=O)c(F)c(Nc2ccc(I)cc2F)c2c(=O)n(C[C@@H](O)CO)cnc21 [TAK-733] | > 30 µM (inactive)
> 30 µM (inactive) | > 30 µM (inactive) | > 30 µM (inactive) | > 30 µM (inactive) | > 30 µM (inactive) | – | > 30 µM (inactive) | Cn1c(=O)n(-c2ccc(C(C)(C)C#N)cc2)c2c3cc(-c4cnc5ccccc5c4)ccc3ncc21 [DACTOLISIB] | > 30 µM (inactive)
> 30 µM (inactive) | > 30 µM (inactive) | > 30 µM (inactive) | – | – | – | – | COc1cc2c(N3CCN(C(=O)Nc4ccc(OC(C)C)cc4)CC3)ncnc2cc1OCCCN1CCCCC1 [TANDUTINIB] | –
> 30 µM (inactive) | > 30 µM (inactive) | > 30 µM (inactive) | – | 1.22 µM (active) | – | > 30 µM (inactive) | COc1cc2c(Oc3ccc4[nH]c(C)cc4c3F)ncnc2cc1OCCCN1CCCC1 [CEDIRANIB] | –
> 30 µM (inactive) | > 30 µM (inactive) | > 30 µM (inactive) | – | > 30 µM (inactive) | > 30 µM (inactive) | > 30 µM (inactive) | CC(C)(O)CC(=O)NCCn1ccc2ncnc(Nc3ccc(Oc4cccc(C(F)(F)F)c4)c(Cl)c3)c21 [TAK-285] | > 30 µM (inactive)
> 30 µM (inactive) | > 30 µM (inactive) | > 30 µM (inactive) | > 30 µM (inactive) | > 30 µM (inactive) | > 30 µM (inactive) | – | COc1ccc2c(OCc3nnc4ccc(-c5ccccc5)nn34)ccnc2c1 [AMG-208] | > 30 µM (inactive)
> 30 µM (inactive) | > 30 µM (inactive) | > 30 µM (inactive) | – | – | – | > 30 µM (inactive) | CC1(C)CNc2cc(NC(=O)c3cccnc3NCc3ccncc3)ccc21 [MOTESANIB] | –
> 30 µM (inactive) | > 30 µM (inactive) | > 30 µM (inactive) | > 30 µM (inactive) | > 30 µM (inactive) | > 30 µM (inactive) | – | Cc1cc(-c2cc(OC(=O)c3ccccc3)ccc2Cl)cc2nnc(Nc3ccc(OCCN4CCCC4)cc3)nc12 [TG100-801] | > 30 µM (inactive)
> 30 µM (inactive) | > 30 µM (inactive) | > 30 µM (inactive) | > 30 µM (inactive) | > 30 µM (inactive) | > 30 µM (inactive) | – | O=C(Nc1ccc(OC(F)(F)F)cc1)c1sccc1NCc1ccnc2ccccc12 [OSI-930] | > 30 µM (inactive)
– | > 30 µM (inactive) | > 30 µM (inactive) | 0.082 µM (active) | > 30 µM (inactive) | – | > 30 µM (inactive) | CCN(CCCOc1ccc2c(Nc3cc(CC(=O)Nc4cccc(F)c4)n[nH]3)ncnc2c1)CCOP(=O)(O)O [BARASERTIB] | > 30 µM (inactive)
